Experimental data: the supplement of paper PMC11003180

Legend:
Assay in all cases: drug sensitivity score (DSS) from 5-dose viability curve (DSS (area-based score, 0 = no response)); higher = more sensitive (stronger viability inhibition); extreme values may be limits of the assay
[1] = tested on: MDCK wild-type + doxycycline; details: doxycycline: 10 ng/mL; 72 h
Outline: (§1)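 Two MDCK lines, parental and doxycycline-inducible, received doxycycline at 10 ng/mL in the medium before being plated at 2000 cells/well onto a pre-spotted 384-well oncology library of 528 drugs at five doses (1-10,000 nM). Incubation lasted 72 h at 37 °C. Viability was read by CellTiter-Glo luminescence, scaled per plate between vehicle and positive controls, and converted to drug sensitivity scores through Breeze curve fitting.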

[2] = tested on: MDCK p60AmotL2-inducible + doxycycline (p60AmotL2 expressing); details: doxycycline: 10 ng/mL; 72 h
Outline: as §1

[3] = tested on: MDCK wild-type - doxycycline; details: doxycycline: none; 72 h
Outline: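 Parental MDCK cells, grown without doxycycline, were seeded at 2000 cells/well into 384-well plates pre-spotted with an oncology library of 528 drugs at five doses (1-10,000 nM). After 72 h at 37 °C, CellTiter-Glo luminescence was read. Viability was scaled per plate between vehicle and positive controls, and drug sensitivity scores were derived from dose-response curve fits in the Breeze pipeline.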

O=C1NC(=O)[C@@H](c2cn3c4c(cccc24)CCC3)[C@@H]1c1c[nH]c2ccccc12 [Tivantinib]
drug sensitivity score [1]: 3.4
drug sensitivity score [2]: 2.7
drug sensitivity score [3]: 1.6

NC(=O)NO [Hydroxyurea]
drug sensitivity score [1]: 0
drug sensitivity score [2]: 0
drug sensitivity score [3]: 2

CN1CCN(c2ccc(C(=O)Nc3n[nH]c4ccc(Cc5cc(F)cc(F)c5)cc34)c(NC3CCOCC3)c2)CC1 [Entrectinib]
drug sensitivity score [1]: 0
drug sensitivity score [2]: 0.6
drug sensitivity score [3]: 0

CNC(=O)c1cccc(-c2ccc3c(N4CCOC[C@@H]4C)nc(N4CCOC[C@@H]4C)nc3n2)c1 [Vistusertib]
drug sensitivity score [1]: 10.5
drug sensitivity score [2]: 15.5
drug sensitivity score [3]: 7.5

Cc1ccc(C(=O)Nc2ccc(Oc3cc4cnn(C)c4cc3-c3cn[nH]c3)c(F)c2)c(=O)n1-c1ccc(F)cc1 [Merestinib]
drug sensitivity score [1]: 0
drug sensitivity score [2]: 0
drug sensitivity score [3]: 0.9

CCn1cc(-c2ccnc3[nH]c(-c4cccc(CN(C)C)c4)cc23)c(-c2ccc(NC(=O)N(C)C)cc2)n1
drug sensitivity score [1]: 1.9
drug sensitivity score [2]: 7.1
drug sensitivity score [3]: 0.4

CN(C)CCOc1ccc(/C(=C(/CCCl)c2ccccc2)c2ccccc2)cc1 [Toremifene]
drug sensitivity score [1]: 3.6
drug sensitivity score [2]: 4.6
drug sensitivity score [3]: 0

Cc1ccc(NC(=O)c2ccc(CN3CCN(C)CC3)cc2)cc1Nc1nccc(-c2cccnc2)n1 [Imatinib]
drug sensitivity score [1]: 0
drug sensitivity score [2]: 3.4
drug sensitivity score [3]: 2.7

COc1cc2c(cc1OC(C)C)[C@H](c1ccc(Cl)cc1)N(c1ccc(N(C)C[C@H]3CC[C@H](N4CCN(C)C(=O)C4)CC3)cc1)C(=O)C2 [NVP-CGM097]
drug sensitivity score [1]: 5.3
drug sensitivity score [2]: 7.6
drug sensitivity score [3]: 5.4

CCS(=O)(=O)N1CCN(c2ccc(Nc3ncc(C(N)=O)c(NC4CC4)n3)cc2)CC1 [Cerdulatinib]
drug sensitivity score [1]: 0
drug sensitivity score [2]: 0.2
drug sensitivity score [3]: 0.2

CC[C@]12C=CCN3CC[C@@]4(c5cc([C@@]6(C(=O)OC)C[C@@H]7C[C@@H](C(C)(F)F)CN(Cc8c6[nH]c6ccccc86)C7)c(OC)cc5N(C)[C@H]4[C@@](O)(C(=O)OC)[C@@H]1OC(C)=O)[C@@H]32 [Vinflunine]
drug sensitivity score [1]: 3.7
drug sensitivity score [2]: 3.3
drug sensitivity score [3]: 4.3

Cc1cc(Nc2ncc(Cl)c(Nc3ccccc3S(=O)(=O)C(C)C)n2)c(OC(C)C)cc1C1CCNCC1 [Ceritinib]
drug sensitivity score [1]: 0.6
drug sensitivity score [2]: 0
drug sensitivity score [3]: 0

Cc1c(C(=O)Nc2ccc(N3C[C@@H](C)O[C@@H](C)C3)nc2)cccc1-c1ccc(OC(F)(F)F)cc1 [Sonidegib]
drug sensitivity score [1]: 0
drug sensitivity score [2]: 0
drug sensitivity score [3]: 0.6

CC[C@@](C)(Nc1ccnc(-c2c[nH]c3ncccc23)n1)C(=O)NCC(F)(F)F [Decernotinib]
drug sensitivity score [1]: 0
drug sensitivity score [2]: 0
drug sensitivity score [3]: 0

O=C1Cc2cc(C(=O)NC3C[C@H]4CC[C@@H](C3)N4S(=O)(=O)CC3CCN(CCCC(F)(F)F)CC3)c(Cl)cc2N1 (stereo partly specified)
drug sensitivity score [1]: 0
drug sensitivity score [2]: 0
drug sensitivity score [3]: 0

CCn1c(-c2nonc2N)nc2cnc(Oc3cccc(NC(=O)c4ccc(OCCN5CCOCC5)cc4)c3)cc21
drug sensitivity score [1]: 2.6
drug sensitivity score [2]: 4
drug sensitivity score [3]: 0.8

N.N.[Cl][Pt][Cl] [Cisplatin]
drug sensitivity score [1]: 12.2
drug sensitivity score [2]: 13.5
drug sensitivity score [3]: 5.7

CN(C)c1cc2c(cc1Sc1nc3c(N)nccc3n1CCNCC(C)(C)C)OCO2 [CUDC-305]
drug sensitivity score [1]: 17
drug sensitivity score [2]: 18
drug sensitivity score [3]: 17.7

Nc1ccn([C@@H]2O[C@H](CO)[C@@H](O)[C@@H]2O)c(=O)n1 [Cytarabine]
drug sensitivity score [1]: 2.3
drug sensitivity score [2]: 4
drug sensitivity score [3]: 1.8

CC[C@@H]1C(=O)OC[C@@H]1Cc1cncn1C [Pilocarpine]
drug sensitivity score [1]: 0
drug sensitivity score [2]: 0
drug sensitivity score [3]: 0

O=C1CCC(N2C(=O)c3ccccc3C2=O)C(=O)N1 (stereo unspecified) [Thalidomide]
drug sensitivity score [1]: 0
drug sensitivity score [2]: 0
drug sensitivity score [3]: 0

CN1CCC(CNc2ccc3ncc(-c4cccc(OC(F)(F)F)c4)n3n2)CC1 [SGI-1776]
drug sensitivity score [1]: 6.3
drug sensitivity score [2]: 7.5
drug sensitivity score [3]: 6.6

O=S(=O)(c1cccc2c(O)nccc12)N1CCCNCC1 [Hydroxyfasudil]
drug sensitivity score [1]: 0
drug sensitivity score [2]: 0
drug sensitivity score [3]: 0

CNC(=O)c1cccc2cc(Oc3ccnc4cc(OCC5(N)CC5)c(OC)cc34)ccc12 [Lucitanib]
drug sensitivity score [1]: 0.7
drug sensitivity score [2]: 2.6
drug sensitivity score [3]: 0

Cc1cccc(-c2[nH]c(CNc3ccccc3F)nc2-c2ccc3ncnn3c2)n1 [TEW-7197]
drug sensitivity score [1]: 0
drug sensitivity score [2]: 4.3
drug sensitivity score [3]: 1.1

Cc1cc(-c2nc(-c3ccc(OC(F)(F)F)cc3)no2)nn1Cc1ccnc(N2CCN(C3CC3)CC2)c1 [BAY 87-2243]
drug sensitivity score [1]: 0
drug sensitivity score [2]: 0
drug sensitivity score [3]: 0

O=C(c1ccc(F)c(F)c1Nc1ccc(I)cc1F)N1CC(O)([C@@H]2CCCCN2)C1 [Cobimetinib]
drug sensitivity score [1]: 3.4
drug sensitivity score [2]: 9.8
drug sensitivity score [3]: 3.9

CC(=O)[C@]1(O)Cc2c(O)c3c(c(O)c2[C@@H](O[C@H]2C[C@H](N)[C@H](O)[C@H](C)O2)C1)C(=O)c1ccccc1C3=O [Idarubicin]
drug sensitivity score [1]: 13.9
drug sensitivity score [2]: 19
drug sensitivity score [3]: 16.6

Cc1cc(C(C)Nc2ccccc2)c2nc(N3CCOCC3)cc(=O)n2c1 (stereo unspecified) [TGX-221]
drug sensitivity score [1]: 0.4
drug sensitivity score [2]: 0.3
drug sensitivity score [3]: 0

CCCCCCCCCCCCCCCCOP(=O)([O-])OCC[N+](C)(C)C [Miltefosine]
drug sensitivity score [1]: 5.2
drug sensitivity score [2]: 5.3
drug sensitivity score [3]: 4.9

COc1ccc(-c2nc(N3CCOCC3)c3sc(CN(C)c4ncc(C(=O)NO)cn4)cc3n2)cn1 [CUDC-907]
drug sensitivity score [1]: 28.3
drug sensitivity score [2]: 30.3
drug sensitivity score [3]: 27.2

O=C(O)C1(C(=O)O)CCC1.[NH2-].[NH2-].[Pt+2] [Carboplatin]
drug sensitivity score [1]: 4.4
drug sensitivity score [2]: 5
drug sensitivity score [3]: 3.6

CN1CC[C@@H](NC(=O)Nc2ccc(C#N)cc2)C[C@@H]1c1nc2ccccc2[nH]1 [Glasdegib]
drug sensitivity score [1]: 0
drug sensitivity score [2]: 0
drug sensitivity score [3]: 0

CCCCCCCCCCCCCCCCCCOP(=O)([O-])OC1CC[N+](C)(C)CC1 [Perifosine]
drug sensitivity score [1]: 0
drug sensitivity score [2]: 0
drug sensitivity score [3]: 0

CC(C)(O)CNc1nc(Nc2ccnc(C(F)(F)F)c2)nc(-c2cccc(C(F)(F)F)n2)n1 [Enasidenib]
drug sensitivity score [1]: 0
drug sensitivity score [2]: 0
drug sensitivity score [3]: 0

COc1ccc(S(=O)(=O)Nc2cccnc2Nc2ccc(O)cc2)cc1 [ABT-751]
drug sensitivity score [1]: 16.6
drug sensitivity score [2]: 16
drug sensitivity score [3]: 15.3

C=CCc1cccc(/C=N/NC(=O)CN2CCN(Cc3ccccc3)CC2)c1O [PAC-1]
drug sensitivity score [1]: 4.2
drug sensitivity score [2]: 4
drug sensitivity score [3]: 2.6
